Data published in US10842152B2, “Isothiazolo-based bicycles, processes for their preparation and their use as herbicides and/or plant growth regulators” (Bayer CropScience Aktiengesellschaft, priority 2017, dated 2020).

Experiments:
Format in all cases: in vivo
Viola tricolor [1] = experiment: Herbicidal effect post-emergence; details: 320 g/ha, visual grading after ca. 3 weeks (Table 9)
Text: (§1) Herbicidal activities of the compounds of the formulae (G1) or (G2) according to the invention were investigated against the following harmful plants: • ALOMY=Alopecurus myosuroides • ECHCG=Echinochloa crus-galli • SETVI=Setaria viridis • ABUTH=Abutilon theophrasti • AMARE=Amaranthus retroflexus • PHBPU=Pharbitis purpurea • POLCO=Polygonum convolvulus (=Fallopia convolvulus) • STEME=Stellaria media • VIOTR=Viola tricolor
(§2) Seeds of mono- and dicotyledonous weed plants and crop plants are sown in wood-fiber pots in sandy loam, covered with soil and grown in a greenhouse under controlled growth conditions. 2 to 3 weeks after sowing, the test plants are sprayed in the single-leaf stage. The compounds according to the invention, formulated in form of wettable powders (WP) or as emulsifiable concentrates (EC), are then sprayed onto the green plant parts as aqueous suspension or emulsion, with the addition of 0.5% of an additive, at an application rate of 600 l of water/ha (converted). After the test plants had been in the greenhouse for ca. 3 weeks under optimum growth conditions, the effect of the preparations is assessed visually in comparison with untreated controls (herbicidal effect in percent (%): 100% effect=plants have died off, 0% effect=as control plants).

Setaria viridis [2] = experiment: Herbicidal effect post-emergence; details: 320 g/ha, visual grading after ca. 3 weeks (Table 9)
Text: as §1, §2

Amaranthus retroflexus [3] = experiment: Herbicidal effect post-emergence; details: 320 g/ha, visual grading after ca. 3 weeks (Table 9)
Text: as §1, §2

Viola tricolor [4] = experiment: Herbicidal effect pre-emergence; details: 320 g/ha, visual grading after ca. 3 weeks vs untreated controls
Text: as §1
(§3) Seeds of mono- and dicotyledonous weed plants and crop plants are sown in wood-fiber pots in sandy loam and covered with soil. The compounds according to the invention, formulated in the form of wettable powders (WP) or as emulsifiable concentrates (EC), are then applied to the surface of the covering soil as aqueous suspension or emulsion, with the addition of 0.5% of an additive, at an application rate of 600 l of water/ha (converted).
(§4) Following treatment, the pots are placed in a greenhouse and kept under optimum growth conditions for the test plants. The visual grading of the damage to the test plants is carried out after ca. 3 weeks in comparison to untreated controls (herbicidal effect in percent (%): 100% effect=plants have died off, 0% effect=as control plants).

Setaria viridis [5] = experiment: Herbicidal effect pre-emergence; details: 320 g/ha, visual grading after ca. 3 weeks vs untreated controls
Text: as §1, §3, §4

Amaranthus retroflexus [6] = experiment: Herbicidal effect pre-emergence; details: 320 g/ha, visual grading after ca. 3 weeks vs untreated controls
Text: as §1, §3, §4

Row | Structure (SMILES) | herbicidal effect VIOTR (Viola tricolor [1]) | herbicidal effect SETVI (Setaria viridis [2]) | herbicidal effect AMARE (Amaranthus retroflexus [3]) | herbicidal effect VIOTR (Viola tricolor [4]) | herbicidal effect SETVI (Setaria viridis [5]) | herbicidal effect AMARE (Amaranthus retroflexus [6])
1 | CC(C)c1cc2c(N)nsc2c(=O)n1CC1CCCCC1 [Example I-023, 3-amino-6-(cyclohexylmethyl)-5-isopropyl-isothiazolo[5,4-c]pyridin-7-one] | 100% | 90% | 100% | 90% | 90% | 100%
2 | CC(C)Cc1cc2c(NC(=O)C(F)(F)F)nsc2c(=O)n1CC1CCCCC1 [Example I-056] | 90% | 100% | 90% | 100% | 90% | 90%
3 | CCC(=O)Nc1nsc2c(=O)n(CC3CCCCC3)c(COC)cc12 [Example I-033] |  |  |  | 100% | 100% | 100%
4 | COCc1cc2c(NC(=O)C(F)(F)C(F)(F)F)nsc2c(=O)n1CC1CCCCC1 [Example I-034] |  |  |  | 100% | 100% | 100%
5 | CCO/N=C(/C)c1cn(CC2CCCCC2)c(=O)c2snc(N)c12 [Example I-142] | 80% | 100% | 100% |  |  | 
6 | COC(C)(C)C#Cc1cn(CC2CCCCC2)c(=O)c2snc(N)c12 [Example I-105] |  |  |  | 100% | 100% | 100%
7 | CC(O)c1cc2c(N)nsc2c(=O)n1CC1CCCCC1 (stereo not drawn) [Example I-072] | 100% | 80% | 100% |  |  | 
8 | Nc1nsc2c1C(O)CN(CC1CCCCC1)C2=O (stereo not drawn) [Example I-144] |  |  |  | 100% | 90% | 100%
9 | CC(C)c1cc2c(NC(=O)C(F)(F)C(F)(F)F)nsc2c(=O)n1CC1CCCCC1 [Example I-021, N-[6-(cyclohexylmethyl)-5-isopropyl-7-oxo-isothiazolo[5,4-c]pyridin-3-yl]-2,2,3,3,3-pentafluoro-propanamide] | 80% | 100% | 100% | 100% | 90% | 100%
10 | C/C=C/c1cn(CC2CCCCC2)c(=O)c2snc(N)c12 [Example I-118] | 100% | 100% | 100% | 80% | 90% | 90%
11 | CC(=O)c1cn(CC2CCCCC2)c(=O)c2c1C(N)=NS2(=O)=O [Example I-158] |  |  |  | 100% | 80% | 90%
12 | C=C(OCC)c1cn(CC2CCCCC2)c(=O)c2snc(N)c12 [Example I-133] |  |  |  | 100% | 90% | 90%
13 | Cc1ccc(-c2cn(CC3CCCCC3)c(=O)c3snc(N)c23)o1 [Example I-132] | 90% | 100% | 80% |  |  | 
14 | CCc1cc2c(N)nsc2c(=O)n1CC1CCCCC1 [Example I-020] | 100% | 100% | 100% |  |  | 
15 | CC(=O)OCc1cc2c(N)nsc2c(=O)n1CC1CCCCC1 [Example I-027] |  |  |  | 90% | 90% | 100%
16 | CCC(=O)OCc1cc2c(N)nsc2c(=O)n1CC1CCCCC1 [Example I-046] |  |  |  | 90% | 100% | 100%
17 | CC#Cc1cn(CC2CCCCC2)c(=O)c2snc(N)c12 [Example I-115] | 100% | 100% | 100% |  |  | 

Row | Structure (SMILES) | herbicidal effect VIOTR (Viola tricolor [1]) | herbicidal effect SETVI (Setaria viridis [2]) | herbicidal effect AMARE (Amaranthus retroflexus [3]) | herbicidal effect VIOTR (Viola tricolor [4]) | herbicidal effect SETVI (Setaria viridis [5]) | herbicidal effect AMARE (Amaranthus retroflexus [6])
18 | C/C(=N/OCC1CC1)c1cn(CC2CCCCC2)c(=O)c2snc(N)c12 [Example I-167] |  |  |  | 100% | 100% | 100%
19 | O=C(Nc1nsc2c(=O)n(CC3CCCCC3)c(C3CC3)cc12)C(F)(F)C(F)(F)F [Example I-022] |  |  |  | 100% | 100% | 100%
20 | CC(O)c1cn(CC2CCCCC2)c(=O)c2snc(N)c12 (stereo not drawn) [Example I-147] | 100% | 80% | 100% |  |  | 
21 | CCO/N=C(/C)c1cn(CC2CCCCC2)c(=O)c2snc(N)c12 [Example I-141] | 100% | 100% | 100% |  |  | 
22 | C=Cc1cc2c(N)nsc2c(=O)n1CC1CCCCC1 [Example I-051] |  |  |  | 100% | 90% | 90%
23 | CCCc1cc2c(NC(=O)C(F)(F)C(F)(F)F)nsc2c(=O)n1CC1CCCCC1 [Example I-032] |  |  |  | 80% | 100% | 80%
24 | CC(=O)OCc1cc2c(NC(=O)C(F)(F)C(F)(F)F)nsc2c(=O)n1CC1CCCCC1 [Example I-035] |  |  |  | 80% | 100% | 100%
25 | CCC(=O)Nc1nsc2c(=O)n(CC3CCCCC3Cl)cc(Cl)c12 (racemic) [Example I-173] |  |  |  | 100% | 100% | 90%
26 | Nc1nsc2c(=O)n(CC3CCCCC3)cc(C(=O)O)c12 [Example I-170] |  |  |  | 90% | 100% | 100%
27 | CCO/C=C/c1cn(CC2CCCCC2)c(=O)c2snc(N)c12 [Example I-113] | 100% | 100% | 100% |  |  | 
28 | CCc1cn(CC2CCCCC2)c(=O)c2snc(NC(=O)C(F)(F)C(F)(F)F)c12 [Example I-107] |  |  |  | 100% | 80% | 100%
29 | C=CCc1cn(CC2CCCCC2)c(=O)c2snc(N)c12 [Example I-143] | 100% | 100% | 100% |  |  | 
30 | O=C(Nc1nsc2c(=O)n(CC3CCCCC3Cl)cc(Cl)c12)C(F)F (racemic) [Example I-159] |  |  |  | 100% | 100% | 100%
31 | CO/N=C(/C)c1cn(CC2CCCCC2)c(=O)c2snc(N)c12 [Example I-134] | 100% | 80% | 100% |  |  | 
32 | Nc1nsc2c(=O)n(CC3CCCCC3Cl)cc(Cl)c12 (racemic) [Example I-155] |  |  |  | 100% | 100% | 80%
33 | CCCc1cn(CC2CCCCC2)c(=O)c2snc(N)c12 [Example I-126] | 100% | 80% | 100% |  |  | 
34 | COC/C=C/c1cn(CC2CCCCC2)c(=O)c2snc(N)c12 [Example I-108] | 100% | 100% | 100% |  |  | 
